{"source": "the supplement of paper PMC10307832", "assay_in_all_cases": "relative viability (nuclei count vs DMSO), 5 days (fraction); higher = more cells survive", "key": {"HOP-62": {"tested_on": "HOP-62", "how_it_was_run": "(§1)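 Each reported value is a median over duplicate plates. It expresses relative viability: treated-well nuclei count divided by vehicle-well nuclei count. Lung cancer cell lines in 1536-well plates were dosed by pin tool a day after seeding, alone with one drug or with a fixed anchor-drug dose plus five library-drug doses (not always all listed) in √10 steps, and nuclei were counted after 5 days.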"}, "COR-L23": {"tested_on": "COR-L23", "how_it_was_run": "as §1"}, "NCI-H441": {"tested_on": "NCI-H441", "how_it_was_run": "as §1"}, "NCI-H1395": {"tested_on": "NCI-H1395", "how_it_was_run": "as §1"}, "NCI-H1944": {"tested_on": "NCI-H1944", "how_it_was_run": "as §1"}, "NCI-H661": {"tested_on": "NCI-H661", "how_it_was_run": "as §1"}, "NCI-H2085": {"tested_on": "NCI-H2085", "how_it_was_run": "as §1"}, "PC-14": {"tested_on": "PC-14", "how_it_was_run": "as §1"}, "NCI-H2087": {"tested_on": "NCI-H2087", "how_it_was_run": "as §1"}, "NCI-H1793": {"tested_on": "NCI-H1793", "how_it_was_run": "as §1"}, "NCI-H596": {"tested_on": "NCI-H596", "how_it_was_run": "as §1"}, "EPLC-272H": {"tested_on": "EPLC-272H", "how_it_was_run": "as §1"}, "HARA": {"tested_on": "HARA", "how_it_was_run": "as §1"}, "LXF-289": {"tested_on": "LXF-289", "how_it_was_run": "as §1"}, "NCI-H1437": {"tested_on": "NCI-H1437", "how_it_was_run": "as §1"}, "NCI-H3122": {"tested_on": "NCI-H3122", "how_it_was_run": "as §1"}, "HCC-78": {"tested_on": "HCC-78", "how_it_was_run": "as §1"}, "NCI-H1666": {"tested_on": "NCI-H1666", "how_it_was_run": "as §1"}, "LCLC-97TM1": {"tested_on": "LCLC-97TM1", "how_it_was_run": "as §1"}, "H3255": {"tested_on": "H3255", "how_it_was_run": "as §1"}, "NCI-H2126": {"tested_on": "NCI-H2126", "how_it_was_run": "as §1"}}}
{"smiles": "Cc1cn(-c2cc(NC(=O)c3ccc(C)c(Nc4nccc(-c5cccnc5)n4)c3)cc(C(F)(F)F)c2)cn1", "note": "[Nilotinib] + Cc1nc(NC(=O)N2CCC[C@H]2C(N)=O)sc1-c1ccnc(C(C)(C)C(F)(F)F)c1 [Alpelisib] (partner 2 µM)", "values": [{"measurement": "relative viability", "setting": "HOP-62; first compound 0.001 µM", "result": 0.889}, {"measurement": "relative viability", "setting": "HOP-62; first compound 0.003162 µM", "result": 0.843}, {"measurement": "relative viability", "setting": "HOP-62; first compound 0.01 µM", "result": 1.13}, {"measurement": "relative viability", "setting": "HOP-62; first compound 0.03162 µM", "result": 0.742}, {"measurement": "relative viability", "setting": "HOP-62; first compound 0.1 µM", "result": 0.7}, {"measurement": "relative viability", "setting": "COR-L23; first compound 0.001 µM", "result": 0.873}, {"measurement": "relative viability", "setting": "COR-L23; first compound 0.03162 µM", "result": 0.901}, {"measurement": "relative viability", "setting": "COR-L23; first compound 0.1 µM", "result": 0.791}, {"measurement": "relative viability", "setting": "NCI-H441; first compound 0.001 µM", "result": 0.761}, {"measurement": "relative viability", "setting": "NCI-H441; first compound 0.003162 µM", "result": 1.14}, {"measurement": "relative viability", "setting": "NCI-H441; first compound 0.01 µM", "result": 0.765}, {"measurement": "relative viability", "setting": "NCI-H441; first compound 0.1 µM", "result": 0.951}, {"measurement": "relative viability", "setting": "NCI-H1395; first compound 0.001 µM", "result": 0.877}, {"measurement": "relative viability", "setting": "NCI-H1395; first compound 0.003162 µM", "result": 0.929}, {"measurement": "relative viability", "setting": "NCI-H1395; first compound 0.03162 µM", "result": 0.977}, {"measurement": "relative viability", "setting": "NCI-H1395; first compound 0.1 µM", "result": 0.99}, {"measurement": "relative viability", "setting": "NCI-H1944; first compound 0.001 µM", "result": 0.867}, {"measurement": "relative viability", "setting": "NCI-H1944; first compound 0.003162 µM", "result": 0.876}, {"measurement": "relative viability", "setting": "NCI-H1944; first compound 0.01 µM", "result": 1.02}, {"measurement": "relative viability", "setting": "NCI-H1944; first compound 0.03162 µM", "result": 0.837}, {"measurement": "relative viability", "setting": "NCI-H1944; first compound 0.1 µM", "result": 0.767}, {"measurement": "relative viability", "setting": "NCI-H661; first compound 0.001 µM", "result": 0.647}, {"measurement": "relative viability", "setting": "NCI-H661; first compound 0.003162 µM", "result": 0.592}, {"measurement": "relative viability", "setting": "NCI-H661; first compound 0.01 µM", "result": 0.721}, {"measurement": "relative viability", "setting": "NCI-H661; first compound 0.03162 µM", "result": 0.366}, {"measurement": "relative viability", "setting": "NCI-H661; first compound 0.1 µM", "result": 0.651}, {"measurement": "relative viability", "setting": "NCI-H2085; first compound 0.001 µM", "result": 0.967}, {"measurement": "relative viability", "setting": "NCI-H2085; first compound 0.003162 µM", "result": 1.05}, {"measurement": "relative viability", "setting": "NCI-H2085; first compound 0.01 µM", "result": 1.07}, {"measurement": "relative viability", "setting": "NCI-H2085; first compound 0.03162 µM", "result": 0.87}, {"measurement": "relative viability", "setting": "NCI-H2085; first compound 0.1 µM", "result": 0.92}, {"measurement": "relative viability", "setting": "PC-14; first compound 0.003162 µM", "result": 1.08}, {"measurement": "relative viability", "setting": "PC-14; first compound 0.03162 µM", "result": 0.547}, {"measurement": "relative viability", "setting": "PC-14; first compound 0.1 µM", "result": 0.888}, {"measurement": "relative viability", "setting": "NCI-H2087; first compound 0.001 µM", "result": 0.831}, {"measurement": "relative viability", "setting": "NCI-H2087; first compound 0.003162 µM", "result": 1.08}, {"measurement": "relative viability", "setting": "NCI-H2087; first compound 0.01 µM", "result": 1.23}, {"measurement": "relative viability", "setting": "NCI-H2087; first compound 0.03162 µM", "result": 0.938}, {"measurement": "relative viability", "setting": "NCI-H2087; first compound 0.1 µM", "result": 0.794}, {"measurement": "relative viability", "setting": "NCI-H1793; first compound 0.003162 µM", "result": 0.778}, {"measurement": "relative viability", "setting": "NCI-H1793; first compound 0.01 µM", "result": 0.861}, {"measurement": "relative viability", "setting": "NCI-H1793; first compound 0.03162 µM", "result": 0.625}, {"measurement": "relative viability", "setting": "NCI-H1793; first compound 0.1 µM", "result": 0.454}, {"measurement": "relative viability", "setting": "NCI-H596; first compound 0.001 µM", "result": 0.457}, {"measurement": "relative viability", "setting": "NCI-H596; first compound 0.003162 µM", "result": 0.541}, {"measurement": "relative viability", "setting": "NCI-H596; first compound 0.01 µM", "result": 0.481}, {"measurement": "relative viability", "setting": "NCI-H596; first compound 0.03162 µM", "result": 0.299}, {"measurement": "relative viability", "setting": "NCI-H596; first compound 0.1 µM", "result": 0.478}, {"measurement": "relative viability", "setting": "EPLC-272H; first compound 0.003162 µM", "result": 1.01}, {"measurement": "relative viability", "setting": "EPLC-272H; first compound 0.03162 µM", "result": 0.894}, {"measurement": "relative viability", "setting": "EPLC-272H; first compound 0.1 µM", "result": 0.763}, {"measurement": "relative viability", "setting": "HARA; first compound 0.001 µM", "result": 0.723}, {"measurement": "relative viability", "setting": "HARA; first compound 0.003162 µM", "result": 0.915}, {"measurement": "relative viability", "setting": "HARA; first compound 0.01 µM", "result": 1.06}, {"measurement": "relative viability", "setting": "HARA; first compound 0.03162 µM", "result": 0.551}, {"measurement": "relative viability", "setting": "HARA; first compound 0.1 µM", "result": 0.821}, {"measurement": "relative viability", "setting": "LXF-289; first compound 0.001 µM", "result": 1.02}, {"measurement": "relative viability", "setting": "LXF-289; first compound 0.003162 µM", "result": 1.26}, {"measurement": "relative viability", "setting": "LXF-289; first compound 0.01 µM", "result": 1.23}, {"measurement": "relative viability", "setting": "LXF-289; first compound 0.03162 µM", "result": 0.935}, {"measurement": "relative viability", "setting": "LXF-289; first compound 0.1 µM", "result": 0.93}, {"measurement": "relative viability", "setting": "NCI-H1437; first compound 0.001 µM", "result": 0.829}, {"measurement": "relative viability", "setting": "NCI-H1437; first compound 0.003162 µM", "result": 1.17}, {"measurement": "relative viability", "setting": "NCI-H1437; first compound 0.01 µM", "result": 1.39}, {"measurement": "relative viability", "setting": "NCI-H1437; first compound 0.03162 µM", "result": 0.75}, {"measurement": "relative viability", "setting": "NCI-H1437; first compound 0.1 µM", "result": 0.971}, {"measurement": "relative viability", "setting": "NCI-H3122; first compound 0.001 µM", "result": 0.941}, {"measurement": "relative viability", "setting": "NCI-H3122; first compound 0.003162 µM", "result": 0.925}, {"measurement": "relative viability", "setting": "NCI-H3122; first compound 0.01 µM", "result": 0.87}, {"measurement": "relative viability", "setting": "NCI-H3122; first compound 0.03162 µM", "result": 0.683}, {"measurement": "relative viability", "setting": "NCI-H3122; first compound 0.1 µM", "result": 0.587}, {"measurement": "relative viability", "setting": "HCC-78; first compound 0.001 µM", "result": 0.347}, {"measurement": "relative viability", "setting": "HCC-78; first compound 0.003162 µM", "result": 0.381}, {"measurement": "relative viability", "setting": "HCC-78; first compound 0.01 µM", "result": 0.444}, {"measurement": "relative viability", "setting": "HCC-78; first compound 0.03162 µM", "result": 0.34}, {"measurement": "relative viability", "setting": "HCC-78; first compound 0.1 µM", "result": 0.382}, {"measurement": "relative viability", "setting": "NCI-H1666; first compound 0.001 µM", "result": 0.877}, {"measurement": "relative viability", "setting": "NCI-H1666; first compound 0.003162 µM", "result": 1.14}, {"measurement": "relative viability", "setting": "NCI-H1666; first compound 0.01 µM", "result": 0.956}, {"measurement": "relative viability", "setting": "NCI-H1666; first compound 0.03162 µM", "result": 0.831}, {"measurement": "relative viability", "setting": "NCI-H1666; first compound 0.1 µM", "result": 0.856}, {"measurement": "relative viability", "setting": "LCLC-97TM1; first compound 0.003162 µM", "result": 0.311}, {"measurement": "relative viability", "setting": "LCLC-97TM1; first compound 0.01 µM", "result": 0.279}, {"measurement": "relative viability", "setting": "LCLC-97TM1; first compound 0.03162 µM", "result": 0.22}, {"measurement": "relative viability", "setting": "LCLC-97TM1; first compound 0.1 µM", "result": 0.275}, {"measurement": "relative viability", "setting": "H3255; first compound 0.001 µM", "result": 0.681}, {"measurement": "relative viability", "setting": "H3255; first compound 0.003162 µM", "result": 0.699}, {"measurement": "relative viability", "setting": "H3255; first compound 0.01 µM", "result": 0.829}, {"measurement": "relative viability", "setting": "H3255; first compound 0.03162 µM", "result": 0.65}, {"measurement": "relative viability", "setting": "H3255; first compound 0.1 µM", "result": 0.796}, {"measurement": "relative viability", "setting": "NCI-H2126; first compound 0.001 µM", "result": 0.732}, {"measurement": "relative viability", "setting": "NCI-H2126; first compound 0.003162 µM", "result": 0.809}, {"measurement": "relative viability", "setting": "NCI-H2126; first compound 0.01 µM", "result": 0.85}, {"measurement": "relative viability", "setting": "NCI-H2126; first compound 0.03162 µM", "result": 0.829}, {"measurement": "relative viability", "setting": "NCI-H2126; first compound 0.1 µM", "result": 0.575}]}
